Here are results for three compounds from publication PMC3262907 (ACS Chemical Biology, 2011).

Format in all cases: cell-based
In test [1] the test system is HCT116 cells. Kind of test: Proliferation assay. The conditions noted are these: Homo sapiens, HCT-116, 96 h, read-out: Cell EC50 HCT 116.
Test [2] concerns HeLa S3 cells. Kind of test: Proliferation assay. The conditions noted are these: Homo sapiens, HeLa S3, 96 h, read-out: Cell EC50 HeLa.
Test [3] relates to HT29 cells. Kind of test: Proliferation assay. The note with it: Homo sapiens, HT-29, 96 h, read-out: Cell EC50 HT29.
The subject of test [4] is monopolar spindle formation. Kind of test: Spindle morphology by indirect immunofluorescence. The note with it: cells arrested in metaphase.

Some results are limits rather than exact numbers.

In the case of `Cc1cc(Nc2cc(N3CCN(C)CC3)nc(Sc3ccc(NC(=O)C4CC4)cc3)n2)[nH]n1` [Compound 32, VX680], the results for the EC50 in test [1], in test [2] and in test [3] were 0.0158 µM, 0.0164 µM and 0.119 µM, respectively.
On to `CCN(CCCOc1ccc2c(Nc3cc(CC(=O)Nc4cccc(F)c4)n[nH]3)ncnc2c1)CCOP(=O)(O)O` [Compound 33, AZD1152], for which the concentration giving a half-maximal response (EC50) in test [1] stood at 0.0174 µM; in test [2], 0.0038 µM; in test [3] it was 0.239 µM. Further, the “concentration up to which no significant monopolarity resulted” value in test [4] was > 500 nM.
With `O=C(O)c1ccc(Nc2ncc3c(n2)-c2ccc(Cl)cc2C(c2c(F)cccc2F)=NC3)cc1` [Compound 34, MLN8054], the EC50 in test [1] was determined as 0.0503 µM; in test [2] it was 0.214 µM; in test [3] it was 0.688 µM.

As a reminder, the EC50 is the concentration at which the effect is half-maximal.
